These results are taken from US20060241177A1, “Novel compounds, pharmaceutical compositions containing same, and methods of use for same” (priority 2002, published 2006).

≈ marks a conversion by molar mass, not a printed value.

Test [1] deals with T1, purified human FAS (Homo sapiens, UniProt P49327).
T1 construct: Human FAS was purified from cultured ZR-75-1 human breast cancer cells; endogenous in cells; host or cells: ZR-75-1 human breast cancer cells (ATCC); endogenous enzyme purified by PEG precipitation and Mono Q chromatography
T1 sequence (P49327 whole entry): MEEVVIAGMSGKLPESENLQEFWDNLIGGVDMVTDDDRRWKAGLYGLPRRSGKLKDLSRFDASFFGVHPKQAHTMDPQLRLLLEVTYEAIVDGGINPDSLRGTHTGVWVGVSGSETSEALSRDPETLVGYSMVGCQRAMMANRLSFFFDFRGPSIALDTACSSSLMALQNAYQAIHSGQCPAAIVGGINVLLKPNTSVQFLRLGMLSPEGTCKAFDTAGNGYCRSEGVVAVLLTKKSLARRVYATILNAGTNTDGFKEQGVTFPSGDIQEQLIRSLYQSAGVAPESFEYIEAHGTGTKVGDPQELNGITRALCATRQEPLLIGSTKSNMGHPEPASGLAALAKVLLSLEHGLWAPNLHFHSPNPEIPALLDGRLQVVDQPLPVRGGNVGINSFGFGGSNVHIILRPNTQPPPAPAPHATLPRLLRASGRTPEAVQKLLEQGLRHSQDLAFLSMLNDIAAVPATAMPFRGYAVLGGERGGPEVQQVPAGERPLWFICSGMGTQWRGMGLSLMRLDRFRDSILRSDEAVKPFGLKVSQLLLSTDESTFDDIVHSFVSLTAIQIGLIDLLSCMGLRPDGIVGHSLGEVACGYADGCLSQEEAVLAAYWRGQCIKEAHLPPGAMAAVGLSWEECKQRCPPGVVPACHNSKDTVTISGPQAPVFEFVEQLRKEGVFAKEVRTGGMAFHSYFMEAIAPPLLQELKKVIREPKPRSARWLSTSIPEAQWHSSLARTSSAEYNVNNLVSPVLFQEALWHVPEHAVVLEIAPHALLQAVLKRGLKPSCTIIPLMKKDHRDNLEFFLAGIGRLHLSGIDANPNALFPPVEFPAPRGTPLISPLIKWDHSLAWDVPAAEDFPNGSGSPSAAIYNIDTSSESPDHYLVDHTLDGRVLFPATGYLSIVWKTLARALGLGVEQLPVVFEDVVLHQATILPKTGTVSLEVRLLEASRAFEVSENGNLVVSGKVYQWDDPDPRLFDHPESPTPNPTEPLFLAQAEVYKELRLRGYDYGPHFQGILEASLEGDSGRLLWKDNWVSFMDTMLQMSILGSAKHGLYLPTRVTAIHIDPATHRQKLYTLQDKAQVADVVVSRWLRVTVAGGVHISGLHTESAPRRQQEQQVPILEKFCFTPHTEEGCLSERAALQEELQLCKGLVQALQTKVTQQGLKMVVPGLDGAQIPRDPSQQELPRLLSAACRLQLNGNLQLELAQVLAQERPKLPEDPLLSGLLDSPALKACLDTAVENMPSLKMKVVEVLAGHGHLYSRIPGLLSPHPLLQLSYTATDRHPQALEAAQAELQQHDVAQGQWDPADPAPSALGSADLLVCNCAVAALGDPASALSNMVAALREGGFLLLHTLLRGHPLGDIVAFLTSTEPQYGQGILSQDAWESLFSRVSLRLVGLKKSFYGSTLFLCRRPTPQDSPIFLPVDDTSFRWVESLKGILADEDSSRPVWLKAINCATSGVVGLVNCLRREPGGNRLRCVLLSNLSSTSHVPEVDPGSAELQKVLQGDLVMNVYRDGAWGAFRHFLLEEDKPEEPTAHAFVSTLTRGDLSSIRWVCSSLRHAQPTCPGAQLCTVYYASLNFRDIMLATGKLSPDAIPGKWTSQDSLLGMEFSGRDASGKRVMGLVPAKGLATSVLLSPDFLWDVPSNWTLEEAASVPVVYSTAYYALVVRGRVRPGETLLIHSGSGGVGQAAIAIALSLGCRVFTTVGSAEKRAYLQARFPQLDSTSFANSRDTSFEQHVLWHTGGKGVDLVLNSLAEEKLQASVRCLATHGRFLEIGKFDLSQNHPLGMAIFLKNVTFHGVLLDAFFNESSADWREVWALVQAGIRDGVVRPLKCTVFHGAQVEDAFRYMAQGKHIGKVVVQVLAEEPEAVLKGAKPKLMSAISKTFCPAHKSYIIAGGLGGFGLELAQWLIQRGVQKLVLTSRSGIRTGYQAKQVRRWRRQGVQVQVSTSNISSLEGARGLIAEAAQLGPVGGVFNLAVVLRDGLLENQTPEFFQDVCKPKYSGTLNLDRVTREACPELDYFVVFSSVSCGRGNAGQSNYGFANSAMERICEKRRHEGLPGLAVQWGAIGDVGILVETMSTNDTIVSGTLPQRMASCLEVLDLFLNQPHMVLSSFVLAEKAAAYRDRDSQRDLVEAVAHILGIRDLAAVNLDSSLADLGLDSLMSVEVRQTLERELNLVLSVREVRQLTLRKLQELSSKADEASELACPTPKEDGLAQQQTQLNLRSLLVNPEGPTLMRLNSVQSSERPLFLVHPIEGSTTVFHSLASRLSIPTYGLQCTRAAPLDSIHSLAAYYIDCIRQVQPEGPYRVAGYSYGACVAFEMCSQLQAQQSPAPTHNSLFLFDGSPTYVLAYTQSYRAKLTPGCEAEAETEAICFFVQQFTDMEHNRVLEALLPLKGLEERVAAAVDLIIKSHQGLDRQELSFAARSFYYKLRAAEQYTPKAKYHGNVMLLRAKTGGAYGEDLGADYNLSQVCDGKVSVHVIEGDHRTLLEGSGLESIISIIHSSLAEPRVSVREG
Nature of the test: Measurement of FAS enzymatic activity (NADPH oxidation) and IC50. Type of test: biochemical. As to conditions: purified human FAS from ZR-75-1 cells, malonyl-CoA dependent NADPH oxidation. As for the experimental part:
Human FAS was purified from cultured ZR-75-1 human breast cancer cells obtained from the American Type Culture Collection. The procedure, adapted from Linn et al., 1981, and Kuhajda et al, 1994, utilizes hypotonic lysis, successive polyethyleneglycol (PEG) precipitations, and anion exchange chromatography. ZR-75-1 cells are cultured at 37° C. with 5% CO2 in RPMI culture medium with 10% fetal bovine serum, penicillin and streptomycin.
Ten T150 flasks of confluent cells are lysed with 1.5 ml lysis buffer (20 mM Tris-HCl pH 7.5, 1 mM EDTA, 0.1 mM phenylmethanesulfonyl fluoride (PMSF), 0.1% Igepal CA-630) and dounce homogenized on ice for 20 strokes. The lysate is centrifuged in JA-20 rotor (Beckman) at 20,000 rpm for 30 minutes at 4° C. and the supernatant is brought to 42 ml with lysis buffer. A solution of 50% PEG 8000 in lysis buffer is added slowly to the supernatant to a final concentration of 7.5%. After rocking for 60 minutes at 4° C., the solution is centrifiged in JA-20 rotor (Beckman) at 15,000 rpm for 30 minutes at 4° C. Solid PEG 8000 is then added to the supernatant to a final concentration of 15%. After the rocking and centrifugation is repeated as above, the pellet is resuspended overnight at 4° C. in 10 ml of Buffer A (20 mM K2HPO4, pH 7.4). After 0.45 μM filtration, the protein solution is applied to a Mono Q 5/5 anion exchange column (Pharmacia). The column is washed for 15 minutes with buffer A at 1 ml/minute, and bound material is eluted with a linear 60-ml gradient over 60 minutes to 1 M KCl. FAS (MW˜270 kD) typically elutes at 0.25 M KCl in three 0.5 ml fractions identified using 4-15% SDS-PAGE with Coomassie G250 stain (Bio-Rad). FAS protein concentration is determined using the Coomassie Plus Protein Assay Reagent (Pierce) according to manufacturer's specifications using BSA as a standard This procedure results in substantially pure preparations of FAS (>95%) as judged by Coomassie-stained gels.
Measurement of FAS Enzymatic Activity and Determination of the IC50 of the Compounds
FAS activity is measured by monitoring the malonyl-CoA dependent oxidation of NADPH spectrophotometrically at OD340 in 96-well plates (Dils et al and Arslanian et at, 1975). Each well contains 2 μg purified FAS, 100 mM K2HPO4, pH 6.5, 1 mM dithiothreitol (Sigma), and 187.5 μM β-NADPH (Sigma). Stock solutions of inhibitors are prepared in DMSO at 2, 1, and 0.5 mg/ml resulting in final concentrations of 20, 10, and 5 μg/ml when 1 μl of stock is added per well. For each experiment, cerulenin (Sigma) is run as a positive control along with DMSO controls, inhibitors, and blanks (no FAS enzyme) all in duplicate.
The assay is performed on a Molecular Devices SpectraMax Plus Spectrophotometer. The plate containing FAS, buffers, inhibitors, and controls are placed in the spectrophotometer heated to 37° C. Using the kinetic protocol, the wells are blanked on duplicate wells containing 100 μl of 100 mM K2HPO4, pH 6.5 and the plate is read at OD340 at 10 sec intervals for 5 minutes to measure any malonyl-CoA independent oxidation of NADPH. The plate is removed from the spectrophotometer and malonyl-CoA (67.4 μM, final concentration per well) and acetyl-CoA (61.8 μM, final concentration per well) are added to each well except to the blanks. The plate is read again as above with the kinetic protocol to measure the malonyl-CoA dependent NADPH oxidation. The difference between the Δ OD340 for the malonyl-CoA dependent and non-malonyl-CoA dependent NADPH oxidation is the specific FAS activity. Because of the purity of the FAS preparation, non-malonyl-CoA dependent NADPH oxidation is negligible.
The IC50 for the compounds against FAS is determined by plotting the Δ OD340 for each inhibitor concentration tested, performing linear regression and computing the best-fit line, r^2 values, and 95% confidence intervals. The concentration of compound yielding 50% inhibition of FAS is the IC50. […]

Test [2] relates to MCF-7 human breast cancer cells. Nature of the test: [14C]acetate incorporation into total lipids (fatty acid synthesis in whole cells). As to conditions: for 14C (IC50): MCF-7 cells; for IC50: Homo sapiens, MCF7, MCF-7 cells. Type of test: cell-based. As for the experimental part:
Measurement of [^14C]Acetate Incorporation into Total Lipids and Determination of IC50 of Compounds
This assay measures the incorporation of [^14C] acetate into total lipids and is a measure of fatty acid synthesis pathway activity in vitro. It is utilized to measure inhibition of fatty acid synthesis in vitro.
MCF-7 human breast cancer cells cultured as above, are plated at 5×10^4 cells per well in 24-well plates. Following overnight incubation, the compounds to be tested, solubilized in DMSO, are added at 5, 10, and 20 μg/ml in triplicate, with lower concentrations tested if necessary. DMSO is added to triplicate wells for a vehicle control. C75 is run at 5 and 10 μg/ml in triplicate as positive controls. After 4 hours of incubation, 0.25 μCi of [^14C]acetate (10 μl volume) is added to each well.
After 2 hours of additional incubation, medium is aspirated from the wells and 800 μl of chloroform:methanol (2:1) and 700 μl of 4 mM MgCl2 is added to each well. Contents of each well are transferred to 1.5 ml Eppendorf tubes, and spun at full-speed for 2 minutes in a high-speed Eppendorf Microcentrifuge 5415D. After removal of the aqueous (upper) layer, an additional 700 μl of chloroform:methanol (2:1) and 500 μl of 4 mM MgCl2 are added to each tube and then centrifuged for 1 minutes as above. The aqueous layer is removed with a Pasteur pipette and discarded. An additional 400 μl of chloroform:methanol (2:1) and 200 μl of 4 mM MgCl2 are added to each tube, then centrifuged and aqueous layer is discarded. The lower (organic) phase is transferred into a scintillation vial and dried at 40° C. under N2 gas. Once dried, 3 ml of scintillant (APB #NBC5104) is added and vials are counted for ^14C. The Beckman Scintillation counter calculates the average cpm values for triplicates.
The IC50 for the compounds is defined as the concentration of drug leading to a 50% reduction in [^14C] acetate incorporation into lipids compared to controls. This is determined by plotting the average cpm for each inhibitor concentration tested, performing linear regression and computing the best-fit line, r^2 values, and 95% confidence intervals. The average cpm values are computed by the Beckman scintillation counter (model LS6500) for each compound concentration. Computation of linear regression, best-fit line, r^2, and 95% confidence intervals are calculated using Prism Version 3.0 (Graph Pad Software).

As usually defined, the IC50 is the concentration that gives 50% inhibition. Higher therefore signals weaker potency. Consider `C=CCNC(=O)C1=C(C)C(=O)O[C@H]1CCCCCCCC`, for which half-maximal inhibition in test [1] (IC50) was put at 317 µM. The “14C (IC50)” value in test [2] was “Neg (stim)”.

As for `C=C1C(=O)O[C@@H](CCCCCCCC)[C@@H]1C(=O)NCC(=O)OC` (racemic), the “FAS (IC50)” value in test [1] is on record as “Neg”. Also, the IC50 in test [2] was determined as 1.1 ± 0.03 µg/mL (≈ 3.38 µM).

On to `C=CCNC(=O)[C@@H]1C(=C)C(=O)O[C@H]1CCCCCCCC` (racemic), for which the “FAS (IC50)” value in test [1] is on record as “Neg”. This molecule had an IC50 in test [2] of 0.75 ± 0.4 µg/mL (≈ 2.56 µM).

As for `C=CCNC(=O)[C@@H]1C(=C)C(=O)O[C@H]1CCCC` (racemic), the IC50 in test [1] is 451 µM; in test [2], 1.8 ± 0.3 µg/mL (≈ 7.59 µM).

As for `C=C1C(=O)O[C@@H](CCCCCCCC)[C@@H]1C(=O)NCC(=O)O` (racemic), in test [1], the “FAS (IC50)” value is on record as “Neg”.

Regarding `C=CCNC(=O)[C@@H]1C(=C)C(=O)O[C@H]1CCCCCC` (racemic), the IC50 is 305 µM in test [1] and 3.3 µg/mL (≈ 12.4 µM) in test [2].

For the molecule `C=C1C(=O)O[C@@H](CCCCCCCC)[C@@H]1C(=O)NCCO` (racemic), the “FAS (IC50)” value in test [1] is on record as “Neg”. Further, in test [2], the IC50 was determined as 2.3 ± 1.3 µg/mL (≈ 7.73 µM).

Consider `CCCCCCCCC1OC(=O)[C@H](C)[C@H]1C(=O)O` (stereo partly drawn), for which the “FAS (IC50)” value in test [1] is “Neg”. The “14C (IC50)” value in test [2] is recorded as “Neg”.

As to `C=CCNC(=O)[C@H]1[C@H](CCCCCCCC)OC(=O)[C@H]1C` (racemic), the “FAS (IC50)” value in test [1] was “Neg”. In addition, the IC50 in test [2] worked out at 25.7 µg/mL (≈ 87 µM).

Consider `CCCCCCCCC1OC(=O)[C@@H](C)[C@H]1C(=O)O` (stereo partly drawn), for which, in test [1], the “FAS (IC50)” value is “Neg”. In addition, the IC50 in test [2] worked out at 31 µg/mL (≈ 121 µM).

On to `C=CCNC(=O)[C@H]1[C@H](CCCCCCCC)OC(=O)[C@@H]1C` (racemic), for which half-maximal inhibition in test [1] (IC50) required 450 µM. Besides, in test [2], the “14C (IC50)” value is given as “Neg”.
